Read-outs that look alike come from different tables or passages of the source.

The test system of one assay is OXPHOS gene expression. Format: cell-based, mouse. The note with it: for OXPHOS expression: primary screen, in words.
The next assay deals with reactive oxygen species. The format is cell-based, mouse. The note with it: for ROS levels: primary screen, in words.
For assay [1], the system named is mitochondrial membrane potential. Format: cell-based, mouse.
The subject of a further assay is cytochrome c. The format is cell-based, mouse.
Assay [2] concerns cellular dehydrogenase activity.
Setting [3] is: Table 3, differentiated C2C12 myotubes, 48 h treatment, composite Z-score vs DMSO.
The mark [4] stands for this setting: Table 5, C2C12 myotubes, 48 h, composite Z-score.
[5] abbreviates: retest at 20 nM to 20 μM, FIG. 6a.
The mark [6] stands for this setting: composite Z-score vs mock-treated (DMSO) wells, Conc 20 μM.
[7] abbreviates: composite Z-score vs DMSO, Conc 20 μM.
The mark [8] stands for this setting: Table 6, C2C12 myotubes, 48 h, composite Z-score.

cytochrome c, sequence (P62897 whole entry): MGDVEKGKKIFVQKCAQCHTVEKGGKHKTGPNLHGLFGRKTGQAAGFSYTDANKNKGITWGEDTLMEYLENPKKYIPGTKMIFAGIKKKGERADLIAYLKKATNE

`COC(=O)Nc1nc2cc(C(=O)c3cccs3)ccc2[nH]1` [Nocodazole, methyl[5-(2-thienylcarbonyl)-1H-benzimidazol-2-yl]carbamate, reference compound]: the GEHTS_Zscore in the assay on OXPHOS gene expression (setting [3]) and with OXPHOS gene expression (setting [4]) was 2.675 throughout. Also, in the assay on OXPHOS gene expression, the OXPHOS expression result is “boost OXPHOS expression”. Besides, the “dose at which OXPHOS expression increased” value in the assay with OXPHOS gene expression (setting [5]) was found to be 2 µM. In addition, the “ROS Zscore” value in the assay with reactive oxygen species (setting [3]) and in the assay on reactive oxygen species (setting [4]) was −1.099 throughout. The ROS levels result with reactive oxygen species is “suppressing ROS levels”. For the same molecule, in the assay with reactive oxygen species (setting [5]), the “dose at which ROS levels decreased” value turned out to be 2 µM.
For the molecule `CC1(C)C(=O)C=C[C@@]2(C)C1=C(O)C(=O)[C@]1(C)[C@@H]2CC[C@@]2(C)[C@H](c3ccoc3)C[C@H]3O[C@]321` [cedrelone], in assay [1] (setting [6]), the ΔΨm is given as −3.459. For the same molecule, in the assay on cytochrome c (setting [6]), the cyt c was −5.998. The MTT in assay [2] (setting [6]) is listed as −6.617. For the same molecule, the Viability with C2C12 myotubes (setting [6]) is −4.680. Further, in the assay on reactive oxygen species (setting [6]), the ROS is given as −3.982.
Regarding `CC1=C(O)C(=O)C=C2C1=CC=C1[C@@]2(C)CC[C@@]2(C)[C@@H]3C[C@](C)(C(=O)O)CC[C@]3(C)CC[C@]12C` [celastrol], in assay [1] (setting [7]), the ΔΨm is listed as −3.520. The cyt c in the assay on cytochrome c (setting [7]) is given as −5.979. The MTT in assay [2] (setting [7]) is given as −6.584. Besides, the Viability in the assay with C2C12 myotubes (setting [7]) is −4.797. For the same molecule, the ROS with reactive oxygen species (setting [7]) is given as −2.732.
Turning to `Cc1cc(C2CCCCC2)n(O)c(=O)c1.NCCO` [ciclopirox ethanolamine], in assay [1], the ΔΨm amounted to 2.994. Also, in the assay with cytochrome c, the cyt c is −0.351. Also, the MTT in assay [2] is given as −2.239. Further, in the assay with C2C12 myotubes, the Viability was determined as 0.101. In addition, the ROS with reactive oxygen species is recorded as −1.968.
Take `C[C@H]1C/C=C/[C@H]2[C@@H]3O[C@]3(C)[C@@H](C)[C@H]3[C@H](Cc4ccccc4)NC(=O)[C@]32OC(=O)O/C=C/[C@@](C)(O)C1=O` [cytochalasin e, reference compound]: the GEHTS_Zscore in the assay with OXPHOS gene expression (setting [3]) turned out to be 2.827. Moreover, the “ROS Zscore” value with reactive oxygen species (setting [3]) is recorded as −2.109.
For `C[C@@H]1CC[C@@]23CCC4(C)[C@@](C=CC5[C@@]6(C)CC[C@H](O)C(C)(C)C6CC[C@]54C)(OC2=O)C3[C@H]1C` (stereo partly drawn) [dehydro (11,12)ursolic acid lactone], the ΔΨm in assay [1] was −0.429. Moreover, the cyt c with cytochrome c (normalized composite Z-score vs mock-treated (DMSO) wells, Conc 20 μM) was −0.175. Further, in assay [2], the MTT is recorded as 0.402. In addition, in the assay on C2C12 myotubes, the Viability is recorded as −0.003. In the assay with reactive oxygen species, the ROS was 0.385.
With `COc1ccc2c(c1)OCC(Cc1ccc(OC(C)=O)c(OC)c1)C2=O` (stereo not drawn) [deoxysappanone (B) 7,3′-dimethyl ether acetate, reference compound], in the assay on OXPHOS gene expression (setting [8]), the GEHTS_Zscore was −0.723. Also, in the assay with reactive oxygen species (setting [8]), the “ROS Zscore” value is listed as −1.894.
As for `COc1ccc2c(c1)OCC(Cc1ccc(OC)c(OC)c1)C2=O` (stereo not drawn) [deoxysappanone (B) trimethyl ether, reference compound], in the assay on OXPHOS gene expression (setting [8]), the GEHTS_Zscore was 0.768. The “ROS Zscore” value with reactive oxygen species (setting [8]) was found to be 1.064.
`CC(C)=CCCC1(C)C=Cc2c(O)c3c(c(CC=C(C)C)c2O1)OC12C(=CC4CC1C(C)(C)OC2(C/C=C(/C)C(=O)O)C4O)C3=O` (stereo not drawn) [dihydrogambogic acid]: the ΔΨm in assay [1] (setting [6]) is −3.431. Besides, in the assay on cytochrome c (setting [6]), the cyt c is listed as −5.191. In addition, the MTT in assay [2] (setting [6]) is −6.208. In the assay with C2C12 myotubes (setting [6]), the Viability is listed as −5.468. Further, the ROS in the assay with reactive oxygen species (setting [6]) is given as −2.239.
Turning to `COc1ccc2c(c1)CC[C@@H]1[C@@H]2CC[C@]2(C)[C@@H](O)[C@H](O)C[C@@H]12` [estriol methyl ether], in assay [1], the ΔΨm is recorded as −0.046. This molecule also returned a cyt c in the assay on cytochrome c (setting [7]) of 0.241. The MTT in assay [2] is on record as −1.611. In the assay with C2C12 myotubes, this molecule had a Viability of 0.054. In the assay with reactive oxygen species, this molecule yielded an ROS of 0.299.
In the assay on OXPHOS gene expression (setting [4]), `COC1=CC(=O)C[C@@H](C)[C@]12Oc1c(Cl)c(OC)cc(OC)c1C2=O` [griseofulvin, reference compound] registered a GEHTS_Zscore of 2.199. In addition, in the assay on OXPHOS gene expression, the OXPHOS expression entry is recorded as “modest increase”. For the same molecule, in the assay on reactive oxygen species (setting [4]), the “ROS Zscore” value was 0.371. In addition, the ROS levels entry with reactive oxygen species is “did not display the same decrease in ROS levels”.
Take `CC(=O)N(CC(O)CO)c1c(I)c(C(=O)NCC(O)CO)c(I)c(C(=O)NCC(O)CO)c1I` (stereo not drawn) [iohexol]: the ΔΨm in assay [1] is −0.970. In the assay with cytochrome c, this molecule showed a cyt c of 0.080. In assay [2], the MTT is −1.085. The Viability in the assay on C2C12 myotubes is recorded as −0.374. In the assay with reactive oxygen species, this molecule showed an ROS of 0.568.
Turning to `N[C@@H](C(=O)N[C@@H]1C(=O)N2C(C(=O)O)=C(Cl)CC[C@H]12)c1ccccc1` [loracarbef], the ΔΨm in assay [1] is reported as −0.229. In addition, the cyt c in the assay on cytochrome c was found to be 0.622. In addition, the MTT in assay [2] was −0.158. Also, the Viability in the assay on C2C12 myotubes was 0.317. For the same molecule, in the assay with reactive oxygen species, the ROS was −0.236.
On the same counts, the results for `CC` [methylmethane] are −0.924, 0.221, −1.330, −1.159 and 0.909.
`COC1=CC(=O)C(O)=C/C1=C\C=C\c1ccccc1` [obtusaquinone]: the ΔΨm in assay [1] (setting [7]) is −3.829. Further, in the assay with cytochrome c (setting [7]), the cyt c is listed as −5.381. The MTT in assay [2] (setting [7]) is given as −6.409. Besides, in the assay on C2C12 myotubes (setting [7]), the Viability is listed as −4.658. In the assay on reactive oxygen species (setting [7]), the ROS is −1.119.
In turn, `CC(=O)O[C@H]1CC[C@@]2(C)C(=CC[C@@H]3[C@@H]2CC[C@]2(C)C(=O)CC[C@@H]32)C1` [praesterone acetate] yielded a ΔΨm in assay [1] of 1.329. The cyt c with cytochrome c is recorded as −0.521. In addition, the MTT in assay [2] was 1.084. Moreover, the Viability in the assay on C2C12 myotubes was found to be 1.018. The molecule also registered an ROS with reactive oxygen species of 0.054.
Turning to `COC(=O)[C@]1(C)CC[C@]2(C)CC[C@]3(C)C4=CC=C5C(=CC(=O)C(O)=C5C)[C@]4(C)CC[C@@]3(C)[C@@H]2C1` [pristimerin], the ΔΨm in assay [1] (setting [7]) is −3.651. Also, in the assay on cytochrome c (setting [7]), the cyt c was −5.896. In addition, the MTT in assay [2] (setting [7]) is −6.164. Further, the Viability with C2C12 myotubes (setting [7]) is given as −5.473. Besides, the ROS in the assay with reactive oxygen species (setting [7]) is listed as −3.693.
As to `C=C(C)/C=C1/C=CC(=O)C(C)=C1` [retusoquinone], in assay [1] (setting [6]), the ΔΨm was −3.628. Further, the cyt c in the assay on cytochrome c (setting [6]) was −5.303. Further, the MTT in assay [2] (setting [6]) was −6.075. The Viability in the assay with C2C12 myotubes (setting [6]) is on record as −5.371. For the same molecule, the ROS in the assay on reactive oxygen species (setting [6]) was −3.565.
Take `C=C(C)CCCC(C)CCOC(C)=O` (stereo not drawn) [rhodinyl acetate]: the ΔΨm in assay [1] is reported as −0.631. This molecule also gave a cyt c with cytochrome c of 0.137. Further, in assay [2], the MTT is reported as −0.833. Moreover, the Viability in the assay with C2C12 myotubes is reported as −0.197. For the same molecule, the ROS in the assay on reactive oxygen species was −0.024.
For `O=C1C(O)=C(O)C(=O)C(O)=C1O` [tetrahydroxy-1,4-quinone], in that order: −0.511, −0.785, −1.965, −1.006 and 0.667.
For (S)-(−)-atenolol, in that order: 0.396, 0.030, −0.552, 0.012 and −0.554.
Consider L-methionine sulfoximine, for which the ΔΨm in assay [1] is given as −0.703. Further, in the assay with cytochrome c, the cyt c is reported as −0.412. Besides, the MTT in assay [2] was −1.902. In the assay on C2C12 myotubes, the Viability was −0.928. Further, in the assay with reactive oxygen species, the ROS was 0.762.
For pyrantel tartrate, in that order: −1.028, −0.306, −1.214, 0.330 and 1.579.

These data come from patent publication US20090143279A1 (priority 2007, published 2009).
